These results are taken from US20120245161A1 (SANOFI, priority 2009, published 2012).

Molecules are shown by their SMILES. Structures can show the parent of a compound that is named as a salt.

One data set relates to β-tryptase. Conditions: inhaled, cited from earlier work.
Data set [1] concerns the target T1, recombinant human beta tryptase (Homo sapiens, UniProt P20231).
T1 construct: made in house; host or cells: yeast cells
As to the kind of experiment: beta-Tryptase inhibition, chromogenic enzyme assay (substrate S2366, read at 405 nm). In kind it is biochemical. The note with it: Tryptase Ki (nM), Ki calculated from IC50: Ki=IC50/(1+[Substrate]/Km); 0.5 mM substrate, room temperature. In short, it runs like this: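 Recombinant human beta tryptase (yeast-expressed; native lung enzyme also used), 50 ng/mL final, with 0.5 mM (2×Km) chromogenic substrate S2366; 30 min in the dark, room temperature, read at 405 nm. Compounds at 0.01-10 μM in duplicate for IC50; Ki=IC50/(1+[S]/Km).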

T1 sequence (P20231 31-275): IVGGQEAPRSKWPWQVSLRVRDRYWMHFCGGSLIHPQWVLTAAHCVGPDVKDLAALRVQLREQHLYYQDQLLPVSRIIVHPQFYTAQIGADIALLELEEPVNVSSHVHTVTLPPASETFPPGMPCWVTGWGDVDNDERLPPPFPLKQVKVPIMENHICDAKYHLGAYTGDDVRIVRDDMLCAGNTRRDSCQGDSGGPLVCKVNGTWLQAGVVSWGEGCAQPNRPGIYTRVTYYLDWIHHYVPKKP

Take `NC(=O)[C@@H]1CCCN1C(=O)[C@H](CCCN=C(N)N)NC(=O)c1ccc2ccccc2c1O` [APC-366]: in the data set with β-tryptase (bronchial allergen challenge), the “Clinical proof-of-concept for asthma” value was “Clinical proof-of-concept”. For the same molecule, in the data set with β-tryptase, the “development outcome / tolerability” value is recorded as “terminated due to bronchial irritation”.
`COCCn1cc(C(=O)N2CCC(c3cc(CN)ccc3F)CC2)c2c(C(=O)N3CCOCC3)cccc21.Cl` [Example 59, [3-[4-(5-Aminomethyl-2-fluoro-phenyl)-piperidine-1-carbonyl]-1-(2-methoxy-ethyl)-1H-indol-4-yl]-morpholin-4-yl-methanone hydrochloride] registered a melting point of 142 to 147 °C. Besides, the Ki in data set [1] was 32 nM.
For the molecule `COCCn1cc(C(=O)N2CCC(c3cc(CN)ccc3F)CC2)c2c(NC(=O)c3cccc4c3OCC4)cccc21` [Example 120, 2,3-Dihydro-benzofuran-7-carboxylic acid [3-[4-(5-aminomethyl-2-fluoro-phenyl)-piperidine-1-carbonyl]-1-(2-methoxy-ethyl)-1H-indol-4-yl]-amide hydrochloride], the Ki in data set [1] was 3 nM.
For the molecule `COCCn1cc(C(=O)N2CCC(c3cc(CN)ccc3F)CC2)c2c(NC(=O)c3cc4cccc(C)c4[nH]3)cccc21` [Example 121, 7-Methyl-1H-indole-2-carboxylic acid [3-[4-(5-aminomethyl-2-fluoro-phenyl)-piperidine-1-carbonyl]-1-(2-methoxy-ethyl)-1H-indol-4-yl]-amide dihydrochloride], the Ki in data set [1] was 99 nM.
Turning to `COCCn1cc(C(=O)N2CCC(c3cc(CN)ccc3F)CC2)c2c(NC(=O)C3CCCN(C)C3)cccc21` (stereo not drawn) [Example 122, 1-Methyl-piperidine-3-carboxylic acid [3-[4-(5-aminomethyl-2-fluoro-phenyl)-piperidine-1-carbonyl]-1-(2-methoxy-ethyl)-1H-indol-4-yl]-amide hydrochloride], the Ki in data set [1] is 44 nM.
As to `COCCn1cc(C(=O)N2CCC(c3cc(CN)ccc3F)CC2)c2c(C(=O)NC3CC3)cccc21` [Example 123, 3-[4-(5-Aminomethyl-2-fluoro-phenyl)-piperidine-1-carbonyl]-1-(2-methoxy-ethyl)-1H-indole-4-carboxylic acid cyclopropylamide hydrochloride], in data set [1], the Ki was 50 nM.
Regarding `COCCn1cc(C(=O)N2CCC(c3cc(CN)ccc3F)CC2)c2c(NC(=O)c3cnco3)cccc21` [Example 124, Oxazole-5-carboxylic acid [3-[4-(5-aminomethyl-2-fluoro-phenyl)-piperidine-1-carbonyl]-1-(2-methoxy-ethyl)-1H-indol-4-yl]-amide hydrochloride], in data set [1], the inhibitory constant (Ki) is 8 nM.

The Ki is a measure of affinity in units of concentration, obtained from inhibition or displacement. As a reminder, the melting point is the temperature of the solid-liquid transition.
